pIC50: −log10 of the molar value. Calls of active or inactive are those of the source. The rule behind the calls is not given here.
Legend:
[1] = Cytotoxicity against human MRC5 cells assessed as reduction in cell viability incubated for 72 hrs by MTT assay; type: toxicity, cell-based
A549 = assay: Cytotoxicity against human A549 cells assessed as reduction in cell viability incubated for 72 hrs by MTT assay; type: functional, cell-based; details: A549, 72 h
[2] = Cytotoxicity against human IMR-90 cells assessed as reduction in cell viability incubated for 72 hrs by MTT assay; type: toxicity, cell-based
MDA-MB-231 [3] = assay: Cytotoxicity against human MDA-MB-231 cells assessed as reduction in cell viability incubated for 72 hrs by MTT assay; type: functional, cell-based; details: MDA-MB-231, 72 h
MDA-MB-231 [4] = assay: Effect on cell cycle progression in human MDA-MB-231 cells assessed as accumulation of cells at S phase at 2 uM by PI staining based flow cytometric analysis; type: functional
MDA-MB-231 [5] = assay: Cytotoxicity against human MDA-MB-231 cells assessed as reduction in cell viability at 0.5 uM measured after 72 hrs by MTT assay; type: functional
HCT-116 = assay: Cytotoxicity against human HCT-116 cells assessed as reduction in cell viability incubated for 72 hrs by MTT assay; type: functional, cell-based; details: HCT-116, 72 h
[6] = target: T1, Serine/threonine-protein kinase tousled-like 2 (Homo sapiens, UniProt Q86UE8); assay: Inhibition of full length FLAG/HA/Strep-tagged TLK2 (unknown origin) transfected in HEK293T cells assessed as reduction in ASF1a phosphorylation at S166 residue at 5 uM by Western blot analysis; type: cell-based
Target sequence in this assay (Q86UE8 whole entry, looked up): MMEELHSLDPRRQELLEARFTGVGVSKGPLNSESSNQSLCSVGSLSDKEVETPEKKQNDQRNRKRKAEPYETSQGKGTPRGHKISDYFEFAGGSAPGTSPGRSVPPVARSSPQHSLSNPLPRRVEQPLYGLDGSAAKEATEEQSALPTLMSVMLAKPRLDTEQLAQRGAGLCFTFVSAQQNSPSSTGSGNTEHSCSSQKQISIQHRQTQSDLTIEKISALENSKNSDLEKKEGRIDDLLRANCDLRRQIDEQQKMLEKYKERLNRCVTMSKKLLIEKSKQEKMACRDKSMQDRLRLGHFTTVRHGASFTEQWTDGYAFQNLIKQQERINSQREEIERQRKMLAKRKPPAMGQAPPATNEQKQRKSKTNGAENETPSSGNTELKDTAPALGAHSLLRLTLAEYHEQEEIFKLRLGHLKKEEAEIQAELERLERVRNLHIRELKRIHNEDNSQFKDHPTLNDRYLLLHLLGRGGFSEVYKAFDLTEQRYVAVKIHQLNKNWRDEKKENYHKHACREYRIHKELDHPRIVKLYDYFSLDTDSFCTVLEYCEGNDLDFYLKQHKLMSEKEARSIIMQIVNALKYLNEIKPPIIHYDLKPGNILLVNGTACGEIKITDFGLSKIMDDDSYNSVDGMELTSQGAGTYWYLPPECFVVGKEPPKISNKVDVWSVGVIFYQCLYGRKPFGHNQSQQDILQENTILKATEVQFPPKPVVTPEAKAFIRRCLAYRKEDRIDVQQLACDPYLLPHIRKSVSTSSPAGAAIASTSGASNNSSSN

[7] = target: Histone chaperone ASF1A (Homo sapiens) (UniProt Q9Y294); assay: Inhibition of ASF1a phosphorylation at S166 residue in human MDA-MB-231 cells at 10 uM incubated for 4 hrs by Western blot analysis; type: cell-based
Chain of Histone chaperone ASF1A (Homo sapiens) (Q9Y294 whole entry): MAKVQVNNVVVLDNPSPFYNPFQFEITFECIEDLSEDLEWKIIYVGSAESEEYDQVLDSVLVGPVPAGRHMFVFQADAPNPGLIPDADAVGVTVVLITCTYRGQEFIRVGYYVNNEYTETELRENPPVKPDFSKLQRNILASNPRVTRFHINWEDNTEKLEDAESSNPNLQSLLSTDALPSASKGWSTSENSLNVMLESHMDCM

MDA-MB-231 [8] = assay: Induction of DNA damage in human MDA-MB-231 cells at 10 uM incubated for 4 hrs by gel electrophoresis method; type: functional, cell-based
[9] = target: T1, Serine/threonine-protein kinase tousled-like 2; assay: Inhibition of full length FLAG/HA/Strep-tagged TLK2 (unknown origin) transfected in HEK293T cells at 50 uM using GST-ASF1 as substrate preincubated for 15 mins followed by substrate addition and measured after 15 mins in presence of ATP by Western blot analysis; details: time 30.0 min
Target sequence in this assay (Q86UE8 whole entry, looked up): as the sequence (Q86UE8 whole entry, looked up) above

MDA-MB-231 [10] = assay: Antiproliferative activity against human MDA-MB-231 cells assessed as increase in cell death rate at 1 uM by trypan blue assay; type: functional, cell-based
MDA-MB-231 [11] = assay: Induction of cell cycle arrest in human MDA-MB-231 cells assessed as increase in cells at sub G1 phase at 2 uM measured after 72 hrs by PI staining based flow cytometric analysis (reference value: 0.8%); type: functional
MDA-MB-231 [12] = assay: Induction of cell cycle arrest in human MDA-MB-231 cells assessed as increase in cells at sub G1 phase at 4 uM measured after 72 hrs by PI staining based flow cytometric analysis (reference value: 0.8%); type: functional
MDA-MB-231 [13] = assay: Induction of apoptosis in human MDA-MB-231 cells assessed as increase in caspase-9 level at 4 uM incubated for 72 hrs by gel electrophoresis method; type: functional, cell-based
[14] = target: T1, Serine/threonine-protein kinase tousled-like 2; assay: Binding affinity to full length FLAG/HA/Strep-tagged TLK2 (388 to 772 residues) (unknown origin) transfected in HEK293T cells by Alexa Fluor 647 staining based FRET assay; type: cell-based
Target sequence in this assay (Q86UE8 whole entry): as the sequence (Q86UE8 whole entry, looked up) above

MDA-MB-231 [15] = assay: Induction of apoptosis in human MDA-MB-231 cells assessed as decrease in MCL-1 level at 4 uM incubated for 72 hrs by gel electrophoresis method; type: functional, cell-based
MDA-MB-231 [16] = assay: Antiproliferative activity against human MDA-MB-231 cells assessed as reduction in cell growth at 1 uM by trypan blue assay; type: functional, cell-based
MDA-MB-231 [17] = assay: Induction of apoptosis in human MDA-MB-231 cells assessed as decrease in Bcl-xL level at 4 uM incubated for 72 hrs by gel electrophoresis method; type: functional, cell-based
MDA-MB-231 [18] = assay: Induction of apoptosis in human MDA-MB-231 cells assessed as increase in caspase-3 level at 4 uM incubated for 72 hrs by gel electrophoresis method; type: functional, cell-based
MDA-MB-231 [19] = assay: Antiproliferative activity against human MDA-MB-231 cells assessed as reduction in cell growth at 0.25 uM by trypan blue assay; type: functional, cell-based

## CN(C)CCCO/N=C1/C(=C2/C(=O)Nc3ccccc32)Nc2ccccc21
[1]
  IC50 at 72 h: > 2000 nM
A549
  pIC50: 6.21
[2]
  IC50 at 72 h: > 2000 nM
MDA-MB-231 [3]
  pIC50: 6.36
MDA-MB-231 [4]
  Activity: Active
MDA-MB-231 [5]
  Activity: 40%
HCT-116
  pIC50: 6.15
[6]
  inhibition: Active
[7]
  inhibition of ASF1a S166 phosphorylation (active/inactive call): Active
MDA-MB-231 [8]
  Activity: Active

## CN[C@@H]1C[C@H]2O[C@@](C)([C@@H]1OC)n1c3ccccc3c3c4c(c5c6ccccc6n2c5c31)C(=O)NC4
[9]
  inhibition: Active

## CN1CCCCC1CCO/N=C1/C(=C2/C(=O)Nc3cc(Cl)ccc32)Nc2ccccc21 (stereo not given)
[7]
  inhibition of ASF1a S166 phosphorylation (active/inactive call): Active

## COc1ccc2c(c1)c(C1=C(c3c[nH]c4ccccc34)C(=O)NC1=O)cn2CCCN(C)C
[9]
  inhibition: Active

## CN1CCCCC1CCO/N=C1/C(=C2/C(=O)Nc3ccccc32)Nc2ccc(F)cc21 (stereo not given)
MDA-MB-231 [5]
  Activity: <30%

## CN1CCCC1CCO/N=C1/C(=C2/C(=O)Nc3ccccc32)Nc2ccccc21 (stereo not given)
MDA-MB-231 [10]
  Activity: Active
[1]
  IC50 at 72 h: > 2000 nM
A549
  pIC50: 6.59
[2]
  IC50 at 72 h: > 2000 nM
MDA-MB-231 [11]
  Activity: 15.4%
MDA-MB-231 [3]
  pIC50: 6.60
MDA-MB-231 [12]
  Activity: 25.6%
MDA-MB-231 [13]
  Activity: Active
MDA-MB-231 [4]
  Activity: Active
[14]
  pIC50: 7.73
MDA-MB-231 [15]
  Activity: Active
MDA-MB-231 [16]
  Activity: Active
MDA-MB-231 [5]
  Activity: 40%
MDA-MB-231 [17]
  Activity: Active
MDA-MB-231 [18]
  Activity: Active
HCT-116
  pIC50: 6.43
[6]
  inhibition: Active
MDA-MB-231 [19]
  Activity: Active
[7]
  inhibition of ASF1a S166 phosphorylation (active/inactive call): Active
MDA-MB-231 [8]
  Activity: Active

## CN(C)CCCn1cc(C2=C(c3c[nH]c4ccccc34)C(=O)NC2=O)c2ccccc21
[9]
  inhibition: Active
